Read-outs that look alike come from different tables or passages of the source. Where only a bound is given, the exact number is not on record here.

The results in this text go back to patent US7741355B2, “Small-molecule modulators of TRP-p8 activity” (Dendreon Corporation, priority 2006, dated 2010).

For one series, the target named is T1, Trp-p8 (Homo sapiens, UniProt Q7Z2W7, T58I).
T1 construct: expressed in transfected cells; host or cells: CHO (Chinese Hamster Ovary) cells
Description: ATP viability assay with CHO/Trp-p8 cells at 37° C. The format is cell-based. The source says: (§1) Human Trp-p8 transfected CHO cells (referred to herein as CHO/Trp-p8) were generated for use in experiments of the present invention. Expression of Trp-p8 polypeptide in this transfectant and the absence of any endogenous expression in the non-transfected CHO was confirmed by western blot and immunofluorescence using a Trp-p8 specific antibody (GS2.20) as well as the calcium flux assay with Icilin (1-[2-hydroxyphenyl]-4-[3-nitrophenyl]-1,2,3,6-tetrahydropyrimidine-2-one) and menthol (2-isopropyl-5-methyl-cyclohexanol). Non-transfected CHO cells were used to establish the specificity of the effects of the compounds observed with CHO/Trp-p8.
This Example discloses an ATP viability assay suitable for screening for effective Trp-p8 agonists. The ATP viability assay described herein employs CHO cells expressing an exogenous Trp-p8 cDNA. This example further establishes that Trp-p8 agonists of the present invention are effective in decreasing the viability of Trp-p8 expressing cells.
The concentration of intracellular ATP declines very rapidly when metabolically active cells undergo necrosis and/or apoptosis. The ATP concentration and consequently the relative cell viability can be measured by established methods using commercially available reagents. In the agonist screening methodology disclosed herein, a compound that specifically decreases the viability of CHO/Trp-p8 cells is referred to as an agonist.
(§2) As a primary screen for efficacy and specificity for agonists, both the non-transfected CHO and CHO/Trp-p8 cells were exposed to 1 or 10 μM of test compounds in 1% dimethylsulfoxide (DMSO) or 1% DMSO (control) in a 96-well black walled, black-bottomed, cell-culture treated plate. DMSO was the solvent for all of the compounds tested. After 24-26 hours at 37° C., the cells were lysed and ATP concentration determined via a chemiluminescence assay using a commercially available reagent kit—Cell Titer-Glo (Promega; Madison, Wis.). […] (EC50 is defined herein as the agonist concentration at which there is a 50% reduction in relative cell viability).

Another series relates to Parent CHO. Description: ATP viability assay with non-transfected (parent) CHO cells. The note with it: Cricetulus griseus. It counts as cell-based, Chinese Hamster.
Source text: as §1, §2

The nature of series [1]: Plasma concentrations in rats after a single oral dose. The format is in vivo. The note with it: rodents (FIG. 9A: rats), aqueous formulation, oral gavage. The source says:
(§3) FIGS. 9A and 9B are graphs depicting the plasma concentrations of several compounds, as a function of time and dose, in rats (FIG. 9A), and dogs (FIG. 9B) after a single oral dose. […] Blood was collected at the indicated time points, and analyzed for drug levels.

Series [2] can be described thus: Plasma concentrations in dogs after a single oral dose. The format is in vivo. The note with it: Beagle dogs (FIG. 9B), aqueous formulation, oral gavage.
Source text: as §3

A short description of series [3]: Sustained plasma levels after oral dosing (half-life, species not stated). The format is in vivo. The note with it: oral administration, read-out: t½ (sustained plasma levels) (converted).
Source text: as §3

Setting [4] is: ATP viability assay, read-out: CHO/Trp-p8 EC50.
[5] abbreviates: Table 5, Formula I-E, CHO/Trp-p8 cells, 24-26 hours at 37° C., 50% reduction in relative cell viability, read-out: EC50.
[6] abbreviates: Table 2, Formula I-B, CHO/Trp-p8 cells, 24-26 hours at 37° C., 50% reduction in relative cell viability, read-out: EC50.
The mark [7] stands for this setting: Table 1, Formula I-A, CHO/Trp-p8 cells, 24-26 hours at 37° C., 50% reduction in relative cell viability, read-out: EC50.
The mark [8] stands for this setting: Table 4, Formula I-D, CHO/Trp-p8 cells, 24-26 hours at 37° C., 50% reduction in relative cell viability, read-out: EC50.

T1 sequence (Q7Z2W7 whole entry T58I): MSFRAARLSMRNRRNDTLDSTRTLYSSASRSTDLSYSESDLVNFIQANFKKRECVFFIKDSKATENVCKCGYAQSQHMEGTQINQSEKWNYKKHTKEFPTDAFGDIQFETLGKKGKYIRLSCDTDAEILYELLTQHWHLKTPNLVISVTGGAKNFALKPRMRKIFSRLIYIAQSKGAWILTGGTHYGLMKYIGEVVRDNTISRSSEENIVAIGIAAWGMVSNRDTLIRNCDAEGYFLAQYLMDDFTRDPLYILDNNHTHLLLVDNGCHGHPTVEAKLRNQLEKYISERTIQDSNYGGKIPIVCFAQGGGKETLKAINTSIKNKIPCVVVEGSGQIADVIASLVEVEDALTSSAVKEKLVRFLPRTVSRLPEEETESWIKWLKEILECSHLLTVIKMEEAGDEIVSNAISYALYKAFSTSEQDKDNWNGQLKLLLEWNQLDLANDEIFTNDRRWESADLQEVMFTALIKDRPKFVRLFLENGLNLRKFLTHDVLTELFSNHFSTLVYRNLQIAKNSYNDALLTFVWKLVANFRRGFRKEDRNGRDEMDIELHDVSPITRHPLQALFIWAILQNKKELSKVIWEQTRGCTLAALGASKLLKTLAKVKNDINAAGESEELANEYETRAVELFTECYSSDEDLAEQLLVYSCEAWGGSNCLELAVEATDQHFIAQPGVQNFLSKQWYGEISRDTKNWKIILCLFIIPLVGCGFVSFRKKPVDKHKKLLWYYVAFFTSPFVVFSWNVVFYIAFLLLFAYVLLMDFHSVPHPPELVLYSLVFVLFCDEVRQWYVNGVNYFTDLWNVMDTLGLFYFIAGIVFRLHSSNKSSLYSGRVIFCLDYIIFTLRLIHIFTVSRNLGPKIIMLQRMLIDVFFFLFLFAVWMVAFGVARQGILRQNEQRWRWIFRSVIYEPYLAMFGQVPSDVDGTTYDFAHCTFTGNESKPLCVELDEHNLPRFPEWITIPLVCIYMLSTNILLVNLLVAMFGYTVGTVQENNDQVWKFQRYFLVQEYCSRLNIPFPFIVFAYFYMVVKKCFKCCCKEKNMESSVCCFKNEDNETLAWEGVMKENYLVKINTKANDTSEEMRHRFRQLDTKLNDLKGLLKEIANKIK

Turning to `CC(C)[C@@H]1CC[C@@H](C)C[C@H]1C(=O)n1c(=O)n(CCN)c2ccccc21` [II], the EC50 was 10 nM on Trp-p8 (setting [4]) and above 10000 nM in the series with Parent CHO. Further, the “exposure after a single oral administration” value in series [1] and in series [2] was “prolonged exposure” in each case. In series [3], the half-life is around 9 h. In the case of `CC(C)[C@@H]1CC[C@@H](C)C[C@H]1C(=O)n1c(=O)n(CCN)c2cc(C(=O)NCCc3ccccc3)ccc21` [Compound 71], the EC50 at Trp-p8 (setting [5]) was in the range of 51 to 100 nM.

As for `CC(C)[C@@H]1CC[C@@H](C)C[C@H]1C(=O)Nc1cc(-c2cccc(N)c2)nn1CCN` [Compound 26], the EC50 on Trp-p8 (setting [6]) was in the range of 51 to 100 nM. In the case of `CC(C)[C@@H]1CC[C@@H](C)C[C@H]1C(=O)n1c(=O)n(CCN)c2cc(C(=O)N(C)c3ccccc3)ccc21` [Compound 68], the EC50 at Trp-p8 (setting [5]) was in the range of 51 to 100 nM.

Regarding `CC(C)[C@@H]1CC[C@@H](C)C[C@H]1C(=O)Nc1cc(-c2ccccc2)nn1CCN` [Compound 16], the EC50 on Trp-p8 (setting [6]) was below 20 nM. Take `CC(C)[C@@H]1CC[C@@H](C)C[C@H]1C(=O)Nc1ccc2ccccc2c1OCCN` [Compound 3]: at Trp-p8 (setting [7]), the EC50 was below 20 nM. Regarding `C#CCOc1ccc2c(c1)n(CCN)c(=O)n2C(=O)[C@@H]1C[C@H](C)CC[C@H]1C(C)C` [Compound 46], the EC50 on Trp-p8 (setting [5]) is below 20 nM. On to `CC(C)[C@@H]1CC[C@@H](C)C[C@H]1C(=O)Nc1cc(-c2cccc(C#N)c2)nn1CCN` [Compound 23], for which the EC50 at Trp-p8 (setting [6]) is 21 to 50 nM. As to `CC(C)[C@@H]1CC[C@@H](C)C[C@H]1C(=O)n1c(=O)n(CCN)c2cc(C(=O)NCCO)ccc21` [Compound 52], the EC50 on Trp-p8 (setting [5]) was below 20 nM. Same read-out and setting: under `CC(C)[C@@H]1CC[C@@H](C)C[C@H]1C(=O)n1c(=O)n(CCN)c2cc(OCCO)ccc21` [Compound 40, 3-(2-aminoethyl)-5-(2-hydroxyethoxy)-1-(2-isopropyl-5-methylcyclohexanecarbonyl)-1,3-dihydro-benzoimidazol-2-one] stands below 20 nM. Same read-out and setting: under `CC(C)[C@@H]1CC[C@@H](C)C[C@H]1C(=O)n1c(=O)n(CCN)c2cc(C(=O)Nc3cccnc3)ccc21` (stereo in doubt) [Compound 48, 3-(2-Amino-ethyl)-1-(2-isopropyl-5-methylcyclohexanecarbonyl)-2-oxo-2,3-dihydro-1H-benzoimidazole-5-carboxylic acid pyridine-3-yl amide] stands below 20 nM.

Turning to `COCCNC(=O)c1ccc2c(c1)n(CCN)c(=O)n2C(=O)[C@@H]1C[C@H](C)CC[C@H]1C(C)C` [Compound 49], on Trp-p8 (setting [5]), the EC50 is below 20 nM.

Consider `CC(C)[C@@H]1CC[C@@H](C)C[C@H]1C(=O)n1c(=O)n(CCN)c2cc(OCCCO)ccc21` [Compound 37, 3-(2-aminoethyl)-5-(3-hydroxypropoxy)-1-(2-isopropyl-5-methylcyclohexanecarbonyl)-1,3-dihydro-benzoimidazol-2-one], for which the EC50 at Trp-p8 (setting [5]) was below 20 nM. Turning to `CC(C)[C@@H]1CC[C@@H](C)C[C@H]1C(=O)n1c(=O)n(CCN)c2cc(S(C)(=O)=O)ccc21` [Compound 39], on Trp-p8 (setting [5]), the EC50 is below 20 nM. For the compound `CC(C)[C@@H]1CC[C@@H](C)C[C@H]1C(=O)NC[C@@H](OCCN)c1ccccc1` [Compound 29], the EC50 on Trp-p8 (Table 3, Formula I-C, CHO/Trp-p8 cells, 24-26 hours at 37° C., 50% reduction in relative cell viability, read-out: EC50) was below 20 nM.

`CCOC(=O)N1CCN(C(=O)c2ccc3c(c2)n(CCN)c(=O)n3C(=O)[C@@H]2C[C@H](C)CC[C@H]2C(C)C)CC1` [Compound 69]: the EC50 at Trp-p8 (setting [5]) fell in the range of 51 to 100 nM.

Consider `CC(C)[C@@H]1CC[C@@H](C)C[C@H]1C(=O)n1c(=O)n(CCCN)c2ccccc21` [Compound 58], for which, on Trp-p8 (setting [5]), the EC50 lay in the range of 21 to 50 nM. In the case of `CC(C)[C@@H]1CC[C@@H](C)C[C@H]1C(=O)NCCN(C(=O)CN)c1ccccc1` [Compound 35], on Trp-p8 (setting [8]), the EC50 lay in the range of 21 to 50 nM. In the case of `CNCCn1c(=O)n(C(=O)[C@@H]2C[C@H](C)CC[C@H]2C(C)C)c2ccccc21` [Compound 66], on Trp-p8 (setting [5]), the EC50 lay within 21 to 50 nM.

For the compound `CCCCOc1ccc2c(c1)n(CCN)c(=O)n2C(=O)[C@@H]1C[C@H](C)CC[C@H]1C(C)C` [Compound 67], the EC50 at Trp-p8 (setting [5]) was 51 to 100 nM. As for `CC(C)[C@@H]1CC[C@@H](C)C[C@H]1C(=O)n1c(=O)n(CCN)c2cc(C(=O)Nc3ccncc3)ccc21` [Compound 56], the EC50 on Trp-p8 (setting [5]) is 21 to 50 nM.

`CC(C)[C@@H]1CC[C@@H](C)C[C@H]1C(=O)Nc1cc(-c2ccccc2)nn1CCN` [III]: the EC50 was 10 nM at Trp-p8 (setting [4]) and above 10000 nM in the series with Parent CHO. For the same compound, the “exposure after a single oral administration” value in series [1] and in series [2] was “prolonged exposure” in each case. Further, the half-life in series [3] is around 9 h.

For `CC(C)[C@@H]1CC[C@@H](C)C[C@H]1C(=O)n1c(=O)n(CCN)c2cc(C(N)=O)ccc21` [Compound 41, 3-(2-Amino-ethyl)-1-(2-isopropyl-5-methyl-cyclohexanecarbonyl)-2-oxo-2,3-dihydro-1H-benzoimidazole-5-carboxylic acid amide], at Trp-p8 (setting [5]), the EC50 was below 20 nM.

`CNCCn1nc(-c2ccccc2)cc1NC(=O)[C@@H]1C[C@H](C)CC[C@H]1C(C)C` [Compound 21]: the EC50 at Trp-p8 (setting [6]) fell in the range of 21 to 50 nM.

Turning to `CC(C)[C@@H]1CC[C@@H](C)C[C@H]1C(=O)n1c(=O)n(CCN)c2cc(C(=O)NCc3ccccc3)ccc21` [Compound 63], the EC50 on Trp-p8 (setting [5]) was 21 to 50 nM.

Take `CC(C)[C@@H]1CC[C@@H](C)C[C@H]1C(=O)n1c(=O)n(CCN)c2cc(OCc3ccccc3)ccc21` [Compound 75]: the EC50 at Trp-p8 (setting [5]) lay within 51 to 100 nM. In the case of `CC(C)[C@@H]1CC[C@@H](C)C[C@H]1C(=O)Nc1cc(-c2ccccc2)nn1C[C@H](C)N` [Compound 22], the EC50 on Trp-p8 (setting [6]) was in the range of 21 to 50 nM. As for `CSc1ccc2c(c1)n(CCN)c(=O)n2C(=O)[C@@H]1C[C@H](C)CC[C@H]1C(C)C` [Compound 42, 3-(2-Amino-ethyl)-1-(2-isopropyl-5-methyl-cyclohexanecarbonyl)-5-methylsulfanyl-1,3-dihydro-benzoimidazol-2-one], the EC50 on Trp-p8 (setting [5]) is below 20 nM.

On to `COc1ccc(NC(=O)[C@@H]2C[C@H](C)CC[C@H]2C(C)C)c(NC(=O)[C@@H](C)N)c1` [Compound 1, 2-Isopropyl-5-methyl-cyclohexanecarboxylic acid-[2-(2-aminopropionylamino)-4-methoxylphenyl]amide], for which the EC50 at Trp-p8 (setting [7]) is below 20 nM.

For `COc1ccc(NC(=O)[C@@H]2C[C@H](C)CC[C@H]2C(C)C)c(NC(=O)CN)c1` [Compound 13], on Trp-p8 (setting [7]), the EC50 lay in the range of 51 to 100 nM.

For the compound `CC(C)[C@@H]1CC[C@@H](C)C[C@H]1C(=O)Nc1cc(-c2ccccc2)nn1CCCN` [Compound 18], at Trp-p8 (setting [6]), the EC50 was below 20 nM. For the compound `CC(C)[C@@H]1CC[C@@H](C)C[C@H]1C(=O)n1c(=O)n(CCCCN)c2ccccc21` [Compound 76], the EC50 at Trp-p8 (setting [5]) was in the range of 51 to 100 nM. `CC(C)[C@@H]1CC[C@@H](C)C[C@H]1C(=O)n1c(=O)n(CCN)c2ccccc21` [Compound 50, 1-(2-Aminoethyl)-3-(2-isopropyl-5-methylcyclohexanecarbonyl)-1,3-dihydro-benzoimidazol-2-one]: the EC50 on Trp-p8 (setting [5]) is below 20 nM. As to `CC(C)[C@@H]1CC[C@@H](C)C[C@H]1C(=O)n1c(=O)n(CCN)c2ccc(C(F)(F)F)cc21` [Compound 61], the EC50 on Trp-p8 (setting [5]) lay in the range of 21 to 50 nM. On to `CC(C)[C@@H]1CC[C@@H](C)C[C@H]1C(=O)NCCc1ccccc1NCCN` [Compound 33, 2-Isopropyl-5-methyl-cyclohexanecarboxylic acid {2-[2-(2-amino-ethylamino)-phenyl]-ethyl}-amide], for which, at Trp-p8 (setting [8]), the EC50 is below 20 nM.
